Experimental findings from article PMC6851324, “Design and development of stapled transmembrane peptides that disrupt the activity of G-protein–coupled receptor oligomers” (The Journal of Biological Chemistry, 2019) are described below.

Where two headings read alike, the source gives them in different places. Where a SMILES comes first, the peptide text is derived from it. Bridges are numbered along the chain shown (N, C = ends). [ ]: non-standard residue; d: D form. S5 = C=CCCC[C@](C)(N)C(=O)O; Nle = CCCC[C@H](N)C(=O)O

The target of data set [1] is T1, trypsin from porcine pancreas (Sus scrofa, UniProt P00761).
T1 construct: purchased Sigma; host or cells: porcine pancreas
The data set can be described thus: Proteolytic stability against trypsin. It is filed as in vitro ADME. The settings on record: for half-life at 55.5 μM: pig, isolated enzyme trypsin. As to the method:
(§1) Figure 4. Biophysical analysis of stapled peptides. A, amino acid sequence alignment of the targeted TM regions and disrupting peptides. Cys residues are in the reduced state. Blue bridges indicate the stapled amino acid residues. […] Yields, purity, and MALDI-TOF data are shown for the stapled peptides and negative control. B, CD analysis of 30–50 μM peptides at 20 °C. For proteolytic stability studies, the peptide solution (55.5 μM for trypsin and chymotrypsin and 11.1 μM for serum) was incubated in the presence of 0.55 μg/ml trypsin from porcine pancreas (E), α-chymotrypsin (F), or mouse serum (G) at 37 °C for the indicated times (indicated on the x axis). Data are mean ± S.E. (error bars) (n = 3) percentage of intact peptide normalized to t = 0. Proteolytic half-lives and putative cleavage sites (predicted using the Expasy bioinformatics server's model with a 50% probability of cleavage) are indicated at the bottom of each panel. Positive correlation between helicity and half-life in trypsin/chymotrypsin (C) or serum (D) was determined by two-tailed Pearson's correlation test. TEXT PRINTED IN THE PICTURE: (B) TM7-TAT: Ellipticity (%): 3.4 | (B) TM6-TAT: Ellipticity (%): 18.3 | (B) TM5-TAT: Ellipticity (%): 20.9 | (B) 8: Ellipticity (%): 58.3 | (B) 9: Ellipticity (%): 46.4 | (B) 10: Ellipticity (%): 36.8 | (B) 11: Ellipticity (%): 46 | (E) TM7-TAT: Half-life (min): 21; #Cleavage sites: 8 | (E) TM6-TAT: Half-life (min): 40; #Cleavage sites: 7 | (E) TM5-TAT: Half-life (min): 33; #Cleavage sites: 8 | (E) 8: Half-life (min): 307; #Cleavage sites: 0 | (E) 9: Half-life (min): 178; #Cleavage sites: 0 | (E) 10: Half-life (min): 75; #Cleavage sites: 6 | (E) 11: Half-life (min): 84; #Cleavage sites: 0 | (F) TM7-TAT: Half-life (min): 22; #Cleavage sites: 6 | (F) TM6-TAT: Half-life (min): 32; #Cleavage sites: 7 | (F) TM5-TAT: Half-life (min): 28; #Cleavage sites: 7 | (F) 8: Half-life (min): 425; #Cleavage sites: 4 | (F) 9: Half-life (min): 198; #Cleavage sites: 3 | (F) 10: Half-life (min): 63; #Cleavage sites: 2 | (F) 11: Half-life (min): 79; #Cleavage sites: 4 | (G) TM7-TAT: Half-life (hours): 0.46 | (G) TM6-TAT: Half-life (hours): 0.55 | (G) TM5-TAT: Half-life (hours): 0.81 | (G) 8: Half-life (hours): ≥18 | (G) 9: Half-life (hours): 14.7 | (G) 10: Half-life (hours): 11.7 | (G) 11: Half-life (hours): 5.3 DOUBTS OF THE COPYIST ABOUT THIS PICTURE: Panel A table (Yield, Rt, Purity, [M+H+] calc., [M+H+] Peak Found for 7-11) left out as synthesis and mass-spectrum characterisation data; uncertain whether [M+H+] calc. should count as a molecular weight
(§2) Dose–response curves were fitted using a four-parameter logistic nonlinear regression mode. Peptide stability data were fitted using a nonlinear regression mode for dissociation kinetics. All statistical tests, curve fitting, and graphing were performed using GraphPad Prism 8 (GraphPad Software, La Jolla, CA).
To 100 μl of peptide solution (100 μM, dissolved in ammonium bicarbonate buffer, pH 7.5), 60 μl of ammonium bicarbonate buffer (pH 7.5) was added, together with 20 μl of temperature-equilibrated (37 ± 1 °C) trypsin (5 μg/ml) from porcine pancreas (Sigma, 13,000–20,000 BAEE units/mg of protein). Peptides were incubated for 15, 30, 60, 120, 240, and 480 min, and then MeOH (HPLC Grade) + 0.05% TFA was added. The samples were then centrifuged (15,000 rpm), and the supernatant was analyzed, using Fmoc-Gly (10 μl, 0.2 mM) as an internal standard. The digestion at each time point was repeated three times to give the average values along with S.D. The amount of intact peptide that remained in the mixture was quantified by RP-HPLC. The experiment was repeated twice on different days.

Data set [2] has as its target T2, 5-HT2AR–CB1R heteromers (Homo sapiens, UniProt P28223).
T2 construct: expressed in transfected cells; host or cells: HEK293 (ATCC CRL-1573), transient reverse transfection
The data set is described as follows: NanoBiT BiLC peptide screening assay (LgBiT–CB1R + SmBiT–5-HT2AR). It is filed as cell-based. The note with it: HEK293 cells transiently expressing LgBiT–CB1R and SmBiT–5-HT2AR, preincubated 1 h with 4 μM peptide, luminescence normalized to vehicle, n ≥ 5. As to the method:
Figure 5. Identification of a small-stapled TM peptide disrupting 5-HT2AR–CB1R heteromers. A, schematic representation of the NanoBiT assay using N-terminally labeled constructs. In B, HEK293 cells transiently expressing the LgBT–CB1R and SmBiT–5-HT2AR complementary pairs were preincubated for 1 h at 37 °C with the indicated peptides (4 μM) or vehicle prior to luminescence recording. Data are mean RLU ± S.E. (error bars) (n ≥ 5) percentage of luminescence normalized to vehicle-treated cells. Statistical significance was evaluated by one-way ANOVA followed by Bonferroni post hoc tests, indicating significant differences over vehicle-treated cells (***, p ≤ 0.001; ****, p ≤ 0.0001) and for peptide 10 over its related peptides (####, p ≤ 0.0001). Peptide 10 potency (C) was evaluated as in A over increasing peptide concentrations (bottom) (n = 3). Alternatively, to assess the kinetics of the peptide 10–driven heteromer disruption (D), prior to the administration of the peptide, the cells were preincubated with substrate, and the luminescence was recorded over the following 30 min. Data are mean RLU ± S.E. (n ≥ 3) percentage of luminescence normalized to vehicle-treated cells.
To assess GPCR protein–protein interactions with the NanoBiT technology, HEK293 cells (50,000 cells/well) were seeded in poly-D-lysine–coated white clear bottom 96-well plates and reverse-transfected (see above) with the plasmids encoding the complementary NanoBiT hemiprotein fragments. For orientation screenings, cells were transfected with two different concentrations (50 and 100 ng/well) of each receptor alone or in combination with the investigated partner (see figure legends) in the presence of empty vector (pcDNA3.1(+)) to normalize the total amount of DNA/well. For studies in the presence of increasing nontagged receptor competitors, 100 ng of each receptor pair (CB1R LgBiT + CB1R SmBiT, 5-HT2AR LgBiT + 5-HT2AR SmBiT, and 5-HT2AR LgBiT + CB1R SmBiT) were co-transfected with increasing concentrations of the different nontagged constructs (from 0 to 300 ng/well), and the total amounts of DNA/well were normalized with empty vector (pcDNA3.1(+)). For the screening of stapled peptides, 50 ng/well of both LgBiT CB1R and SmBiT 5-HT2AR were reverse-transfected as detailed previously. 24 h post- transfection, the cell culture medium was removed, and the cells were starved in FBS-free DMEM for 4 h at 37 °C in a 5% CO2 humidified atmosphere. The cell culture medium was replaced by 100 μl of NanoBiT assay buffer (same as for cAMP measurements), and the plates were pre-equilibrated for 1 h at RT in the dark. When peptide pretreatment was required, peptides were added over this pre-equilibration step, except when studying inhibition kinetics, when the peptides were administered immediately after the baseline luminescence recording. 25 μl/well of a 5× solution of the Nano-Glo® live cell reagent containing the cell-permeable furimazine substrate dissolved in Nano-Glo® LCS dilution buffer were added, and the luminescence was immediately monitored in CLARIOstar® Multimode Plate Reader (BMG Labtech) with no lens (1-s integration time/well for 1 h every minute).
as §2

The target of data set [3] is T3, α-chymotrypsin from bovine pancreas (Bos taurus, UniProt P00766, DEL14-15/DEL147-148).
T3 construct: purchased Sigma Type II; host or cells: bovine pancreas
The data set is described as follows: Proteolytic stability against chymotrypsin. It counts as in vitro ADME. The settings on record: for half-life at 55.5 μM: cattle, isolated enzyme chymotrypsin. As to the method: as §1, §2
To 100 μl of peptide solution (100 μM, dissolved in ammonium bicarbonate buffer, pH 7.5), 60 μl of ammonium bicarbonate buffer (pH 7.5) was added, together with 20 μl of temperature-equilibrated (37 ± 1 °C) α-chymotrypsin (5 μg/ml) from bovine pancreas (Sigma, Type II, activity > 40 units/mg protein). Peptides were incubated for 15, 30, 60, 120, 240, and 480 min, and then MeOH (HPLC grade) + 0.05% TFA was added. The samples were then centrifuged (15,000 rpm), and supernatant was analyzed in a similar manner as described above. The experiment was repeated twice on different days.

The nature of data set [4]: Stability in mouse serum. It counts as in vitro ADME. The settings on record: 11.1 μM peptide, fresh nonsterile mouse serum (200 μl serum + 25 μl peptide solution, pH 7.5 buffer with 10% DMSO), 37 °C, quench 15% TCA in acetonitrile, HPLC, n = 3; read-out: Half-life (hours), mouse serum (converted). As to the method: as §1, §2
To 200 μl of fresh nonsterile mouse serum was added 25 μl of peptide solution (100 μM, dissolved in ammonium bicarbonate buffer, pH 7.5, containing 10% DMSO), and the mixture was incubated at 37 °C. At the specified time, an aliquot of incubation mixture was withdrawn and quenched by the addition of an equal volume of 15% TCA in acetonitrile to precipitate out serum proteins over ice for 30 min. The mixture was then centrifuged at 13,500 rpm for 10 min, and the supernatant was collected and analyzed by HPLC in a similar manner as described previously. The experiment was repeated twice on different days.

T1 sequence (P00761 9-231): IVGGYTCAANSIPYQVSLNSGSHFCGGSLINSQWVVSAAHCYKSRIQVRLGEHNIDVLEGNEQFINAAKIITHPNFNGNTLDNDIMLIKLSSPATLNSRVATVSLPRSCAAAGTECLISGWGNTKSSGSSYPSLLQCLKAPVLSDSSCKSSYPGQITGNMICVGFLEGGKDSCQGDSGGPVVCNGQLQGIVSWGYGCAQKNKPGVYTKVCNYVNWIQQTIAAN
T2 sequence (P28223 2-471, one chain of several): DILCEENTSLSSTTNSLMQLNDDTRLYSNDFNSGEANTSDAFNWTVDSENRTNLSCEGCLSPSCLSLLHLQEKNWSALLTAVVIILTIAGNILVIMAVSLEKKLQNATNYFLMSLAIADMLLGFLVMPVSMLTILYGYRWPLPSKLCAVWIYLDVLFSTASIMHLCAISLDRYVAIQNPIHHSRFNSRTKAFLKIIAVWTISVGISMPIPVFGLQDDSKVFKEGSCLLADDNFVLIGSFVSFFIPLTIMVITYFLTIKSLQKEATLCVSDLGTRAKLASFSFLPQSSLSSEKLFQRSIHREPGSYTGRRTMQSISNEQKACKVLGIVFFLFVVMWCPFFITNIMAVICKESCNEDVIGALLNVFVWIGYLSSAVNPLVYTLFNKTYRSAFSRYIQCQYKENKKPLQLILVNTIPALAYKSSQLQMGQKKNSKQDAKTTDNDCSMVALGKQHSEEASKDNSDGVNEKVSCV

Regarding `CCCC[C@@H]1NC(=O)[C@H](Cc2ccc(O)cc2)NC(=O)[C@@](C)(NC(=O)[C@H](Cc2ccc(O)cc2)NC(=O)[C@@H](N)C(C)C)CCC/C=C\CCC[C@@](C)(C(=O)N[C@H](C(=O)N[C@@H](CC(C)C)C(=O)N[C@@H](Cc2c[nH]c3ccccc23)C(N)=O)[C@@H](C)CC)NC1=O` [Peptide 9] (H-VY[S5]Y[Nle][S5]ILW-NH2; staple (Z) 3-6), the half-life at 55.5 μM in data set [1] (pH 7.5, Half-life (min), trypsin) amounted to 178 min. In addition, the “effect on NanoBiT luminescence (heteromer disruption)” value in data set [2] is given as “neither the version lacking the TAT amino acid sequence, compound 9, nor the nonstaple, compound 11, peptides induced any change”. Further, in data set [3] (pH 7.5), the half-life at 55.5 μM is 198 min and the “half-life in chymotrypsin as stated in text” value is 5 to 6 h.
As to `CCCC[C@@H]1NC(=O)[C@H](Cc2ccc(O)cc2)NC(=O)[C@@](C)(NC(=O)[C@H](Cc2ccc(O)cc2)NC(=O)[C@@H](N)C(C)C)CCCC=CCCC[C@@](C)(C(=O)N[C@@H](CC(C)C)C(=O)N[C@@H](Cc2c[nH]c3ccccc23)C(=O)NCC(=O)N[C@@H](CCCNC(=N)N)C(=O)N[C@@H](CCCCN)C(=O)N[C@@H](CCCCN)C(=O)N[C@@H](CCCNC(=N)N)C(=O)N[C@@H](CCCNC(=N)N)C(=O)N[C@@H](CCC(N)=O)C(=O)N[C@@H](CCCNC(=N)N)C(=O)N[C@@H](CCCNC(=N)N)C(=O)N[C@@H](CCCNC(=N)N)C(N)=O)NC(=O)[C@H](Cc2ccc(O)cc2)NC1=O` [Peptide 10] (H-VY[S5]Y[Nle]Y[S5]LWGRKKRRQRRR-NH2; staple 3-7), the half-life at 11.1 μM in data set [4] is 11.7 h. Moreover, the half-life at 55.5 μM stood at 75 min in data set [1] (55.5 μM peptide, 0.55 μg/ml trypsin from porcine pancreas, ammonium bicarbonate buffer pH 7.5, 37 °C, 15–480 min, intact peptide by RP-HPLC (Fmoc-Gly internal standard), n = 3, nonlinear regression fit, read-out: Half-life (min), trypsin) and 63 min in data set [3] (55.5 μM peptide, 0.55 μg/ml α-chymotrypsin from bovine pancreas, ammonium bicarbonate buffer pH 7.5, 37 °C, 15–480 min, intact peptide by RP-HPLC, n = 3, nonlinear regression fit, read-out: Half-life (min), α-chymotrypsin). Further, in data set [1] (versus TM7-TAT, TM6-TAT and TM5-TAT control peptides, trypsin 0.55 μg/ml), the “enhancement in trypsin resistance (half-life) over control peptides” value is on record as 2–3 fold. In addition, the “chymotrypsin resistance improvement over full-length TM-TAT peptides” value in data set [3] (versus full-length TM7-TAT, TM6-TAT and TM5-TAT) is approximately 2 fold.

Broadly, the half-life is the time needed for the level to fall by half in the phase considered.
